Values quoted from earlier work in patent publication US20220233546A1, “Neurologist Formulated Nocturnal Nootropic Founded on a Novel Theory of Brain Aging” (priority 2022, published 2022).
Read-outs that look alike come from different tables or passages of the source. Values belong to the molecule of their own block, whether it stands above or below them.

Key:
[1] = daily dose of 200 to 2400 mg/day
[2] = in vivo
[3] = test system: young persons with multiple sclerosis
[4] = test system: persons with Alzheimer's disease, Parkinson's disease, and multiple sclerosis; conditions: combination therapy including Apigenin 100 mg
plasma homocysteine = conditions: supplementation, human
[5] = human; saffron extract 56 mg and 84 mg
[6] = 675 mg, at 4 weeks
[7] = test system: children with autism spectrum disorder; conditions: combination therapy including Luteolin 100 mg
[8] = test system: amyotrophic lateral sclerosis (ALS)
multiple sclerosis = conditions: high doses; adjunctive therapy in multiple sclerosis
[9] = test system: persons with mild cognitive impairment
[10] = test system: neurohypophyseal hormone release
[11] = test system: persons with mild cognitive impairment; remark: listed apart in the source

SMILES: O=C(O)CCCCC1CCSS1 (racemic) [ALA, Alpha Lipoic Acid]
safety and tolerability [1]: safe and well-tolerated

bioavailability [2]: 50%
SMILES: C/C1=C2/[N-][C@H]([C@H](CC(N)=O)[C@@]2(C)CCC(=O)NC[C@H](C)OP(=O)([O-])O[C@H]2[C@@H](O)[C@@H](n3cnc4cc(C)c(C)cc43)O[C@@H]2CO)[C@]2(C)N=C(/C(C)=C3N=C(/C=C4N=C1[C@@H](CCC(N)=O)C\4(C)C)[C@@H](CCC(N)=O)[C@]\3(C)CC(N)=O)[C@@H](CCC(N)=O)[C@]2(C)CC(N)=O.[Co+2] (stereo in doubt) [cobalamin]

SMILES: O=C(O)CCCC[C@@H]1CCSS1 [(R)-Alpha Lipoic Acid]
safety and tolerability profile ([3]; human, in vivo): good safety and tolerability profile | reduction of yearly rate of brain atrophy ([3]; young persons with multiple sclerosis): ~70%

SMILES: O=c1cc(-c2ccc(O)cc2)oc2cc(O)cc(O)c12 [Apigenin]
clinical course and biomarkers including abnormal protein deposition [4]: trend towards clinical stabilization and reduction of specific biomarkers

SMILES: C[N+](C)(C)CC(=O)O [Betaine]
plasma homocysteine concentrations (plasma homocysteine): significant reduction

bioavailability [5]: 40% | serum concentration of saffron isomers [5]: detected at a significant concentration
SMILES: CC(/C=C/C=C(\C)C(=O)O)=C\C=C\C=C(C)\C=C\C=C(/C)C(=O)O [Crocetin]

SMILES: COc1cc(/C=C/C(=O)CC(=O)/C=C/c2ccc(O)c(OC)c2)ccc1O [Curcumin]
working memory and attention (Buschke Selective Reminding Test, Brief Visual Memory Test-Revised, Trail Making A) (adults without dementia; adults without dementia): improves working memory and attention | post-interventional changes in pathological proteins (amyloid and tau) by positron emission tomography (adults without dementia; brain regions including the amygdala): significant decrease in pathological proteins

increase in CSF Threonate concentration [6]: 54% | increase in magnesium concentration ([6]; CSF): 15% | Threonate concentration in cerebrospinal fluid (CSF) (CSF): ~100 µM | Threonate concentration in plasma (plasma): approximately 20 μM
SMILES: O=C(O)[C@H](O)[C@@H](O)CO [L-Threonate]

SMILES: O=c1cc(-c2ccc(O)c(O)c2)oc2cc(O)cc(O)c12 [Luteolin]
adaptive functioning and Aberrant Behavior Checklist subscale scores [7]: improvement in adaptive functioning and reduction in Aberrant Behavior Checklist subscale scores | adverse effects [7]: no adverse effects

SMILES: COc1cc(/C=C/c2ccc(O)cc2)cc(OC)c1 [Trans-Pterostilbene]
function and progression of neurodegenerative processes [8]: significantly improves function in and slows progression of neurodegenerative processes

SMILES: C=C1CC[C@H](O)C/C1=C/C=C1\CCC[C@]2(C)[C@@H]([C@H](C)CCCC(C)C)CC[C@@H]12 [cholecalciferol, Cholecalciferol]
brain lesions, disability and mobility (multiple sclerosis): fewer new brain lesions, reduced disability, and improved mobility

SMILES: Nc1nc2ncc(CNc3ccc(C(=O)N[C@@H](CCC(=O)O)C(=O)O)cc3)nc2c(=O)[nH]1 [folic acid]
dementia-related biomarkers (beta-amyloid, homocysteine, S-adenosylmethionine, amyloid precursor protein mRNA expression) [9]: deceases dementia-related biomarkers | cognitive function (full scale IQ, verbal IQ, verbal comprehension index, working memory index) ([9]; pre- and post-intervention): improves cognitive function

SMILES: COc1ccc2[nH]cc(CCNC(C)=O)c2c1 [melatonin, Melatonin]
neurohypophyseal hormone release ([10]; higher dose melatonin 5 mg): inhibited | neurohypophyseal hormone release ([10]; low dose melatonin 0.5 mg): augmented | cognition after a battery of neurocognitive testing [11]: significant improvement in cognition

SMILES: CC1=C(C=O)C(C)(C)CC=C1 [safranal, reference compound]
serum concentration of saffron isomers [5]: undetectable
